Experimental data from ChEMBL document CHEMBL3603837, “Indole Glucocorticoid Receptor Antagonists Active in a Model of Dyslipidemia Act via a Unique Association with an Agonist Binding Site” (J Med Chem, 2015).
Activity calls are given as the source filed them. No cut-off for these calls is given here.

Assays:
[1] = target: T1, Mineralocorticoid receptor (Homo sapiens, UniProt P08235); assay: biochemical
T1 sequence (P08235 whole entry): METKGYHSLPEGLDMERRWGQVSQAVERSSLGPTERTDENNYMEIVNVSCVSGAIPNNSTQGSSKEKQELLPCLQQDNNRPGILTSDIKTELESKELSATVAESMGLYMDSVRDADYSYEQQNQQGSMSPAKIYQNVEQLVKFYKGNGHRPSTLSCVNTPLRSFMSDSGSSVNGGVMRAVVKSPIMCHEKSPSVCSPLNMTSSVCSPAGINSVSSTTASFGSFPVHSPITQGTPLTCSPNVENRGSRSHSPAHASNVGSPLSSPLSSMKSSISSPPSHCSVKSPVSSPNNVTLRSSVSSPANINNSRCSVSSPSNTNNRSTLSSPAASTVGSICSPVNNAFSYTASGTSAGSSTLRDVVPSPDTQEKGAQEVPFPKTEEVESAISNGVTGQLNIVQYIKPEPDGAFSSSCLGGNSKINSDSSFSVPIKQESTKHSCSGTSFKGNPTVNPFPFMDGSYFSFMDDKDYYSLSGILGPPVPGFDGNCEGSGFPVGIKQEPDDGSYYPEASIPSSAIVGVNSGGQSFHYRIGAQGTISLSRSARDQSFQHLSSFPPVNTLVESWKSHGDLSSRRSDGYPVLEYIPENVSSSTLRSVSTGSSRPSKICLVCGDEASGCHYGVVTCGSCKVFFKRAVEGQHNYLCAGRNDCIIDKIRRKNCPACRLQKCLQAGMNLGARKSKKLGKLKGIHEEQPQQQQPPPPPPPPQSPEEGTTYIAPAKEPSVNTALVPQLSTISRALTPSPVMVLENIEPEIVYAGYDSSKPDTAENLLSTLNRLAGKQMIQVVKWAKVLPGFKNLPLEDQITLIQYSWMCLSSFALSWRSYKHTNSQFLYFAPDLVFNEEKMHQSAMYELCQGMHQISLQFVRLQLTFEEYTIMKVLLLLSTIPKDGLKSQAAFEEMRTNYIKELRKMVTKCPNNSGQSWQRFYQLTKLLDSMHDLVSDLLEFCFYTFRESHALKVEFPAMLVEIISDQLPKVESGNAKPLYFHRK
Description: Displacement of [3H]-aldosterone from human mineralocorticoid receptor expressed in HEK293 cells by scintillation counting based radioligand competition binding assay

[2] = target: T2, Estrogen receptor (Homo sapiens) (UniProt P03372); assay: Binding affinity to human estrogen receptor expressed in HEK293 cells by scintillation counting based radioligand competition binding assay; format: cell-based
T2 sequence (whole entry): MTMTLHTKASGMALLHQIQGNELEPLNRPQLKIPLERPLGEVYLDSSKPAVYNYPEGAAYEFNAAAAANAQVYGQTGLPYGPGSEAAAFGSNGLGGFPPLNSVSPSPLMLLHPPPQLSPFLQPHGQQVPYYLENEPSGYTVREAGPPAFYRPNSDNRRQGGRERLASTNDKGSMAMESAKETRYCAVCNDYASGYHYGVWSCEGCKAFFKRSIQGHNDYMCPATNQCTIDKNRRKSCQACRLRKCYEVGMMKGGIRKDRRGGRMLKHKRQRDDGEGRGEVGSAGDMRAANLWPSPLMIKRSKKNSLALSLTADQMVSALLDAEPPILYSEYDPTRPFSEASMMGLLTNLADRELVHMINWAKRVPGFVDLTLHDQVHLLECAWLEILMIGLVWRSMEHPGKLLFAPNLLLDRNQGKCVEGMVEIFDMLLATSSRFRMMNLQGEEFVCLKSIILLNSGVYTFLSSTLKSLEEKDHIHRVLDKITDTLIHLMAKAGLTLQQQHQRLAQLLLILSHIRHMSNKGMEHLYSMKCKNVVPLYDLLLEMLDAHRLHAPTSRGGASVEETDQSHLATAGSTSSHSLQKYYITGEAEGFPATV

Progesterone receptor = target: T3, Progesterone receptor (Homo sapiens, UniProt P06401); assay: Displacement of [3H]-methyltrienolone from human progesterone receptor expressed in HEK293 cells by scintillation counting based radioligand competition binding assay
T3 sequence (P06401 whole entry): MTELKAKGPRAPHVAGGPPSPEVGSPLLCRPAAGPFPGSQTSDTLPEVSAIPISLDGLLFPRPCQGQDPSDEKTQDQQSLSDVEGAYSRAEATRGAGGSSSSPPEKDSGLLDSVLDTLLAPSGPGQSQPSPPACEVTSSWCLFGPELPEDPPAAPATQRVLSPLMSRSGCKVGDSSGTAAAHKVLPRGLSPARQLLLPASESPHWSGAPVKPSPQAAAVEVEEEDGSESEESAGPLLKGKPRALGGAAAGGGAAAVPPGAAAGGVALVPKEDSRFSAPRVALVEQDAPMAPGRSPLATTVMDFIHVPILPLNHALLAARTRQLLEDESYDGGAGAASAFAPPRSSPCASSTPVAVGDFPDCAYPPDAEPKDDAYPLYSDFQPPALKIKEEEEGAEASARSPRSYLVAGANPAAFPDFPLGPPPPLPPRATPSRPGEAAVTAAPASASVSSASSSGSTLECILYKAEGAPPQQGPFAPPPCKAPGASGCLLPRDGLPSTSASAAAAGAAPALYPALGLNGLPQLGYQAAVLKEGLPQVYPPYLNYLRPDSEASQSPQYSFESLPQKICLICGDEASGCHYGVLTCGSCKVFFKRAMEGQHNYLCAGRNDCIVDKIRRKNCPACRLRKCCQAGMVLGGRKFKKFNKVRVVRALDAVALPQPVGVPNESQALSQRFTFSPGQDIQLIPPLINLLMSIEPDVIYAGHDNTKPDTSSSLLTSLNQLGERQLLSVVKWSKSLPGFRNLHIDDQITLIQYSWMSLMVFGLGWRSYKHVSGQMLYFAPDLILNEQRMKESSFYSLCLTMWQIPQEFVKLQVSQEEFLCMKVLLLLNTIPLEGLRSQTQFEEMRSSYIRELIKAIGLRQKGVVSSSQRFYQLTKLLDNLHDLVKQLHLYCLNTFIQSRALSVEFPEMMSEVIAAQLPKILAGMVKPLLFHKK

| Compound | Ki [1] | Activity [2] | Ki (Progesterone receptor) |
| --- | --- | --- | --- |
| COc1cc(F)ccc1-c1c(C)[nH]c2c(NS(C)(=O)=O)cc(F)cc12 | 44.7 nM | inactive | 20.5 nM |
| COc1ccc(F)cc1-c1c(-c2ccccc2)[nH]c2c(NS(C)(=O)=O)cccc12 | 3920 nM | inactive | 44.2 nM |
| CS(=O)(=O)Nc1cccc2cc[nH]c12 | 952 nM | inactive | 104 nM |
| COc1cc(NS(C)(=O)=O)c2[nH]c(C)c(-c3ccccc3)c2c1 | 3890 nM | inactive | 3940 nM |
| COc1cc(NS(C)(=O)=O)c2[nH]c(C)c(-c3cc(F)ccc3OC)c2c1 | 38.4 nM | inactive | 22.3 nM |
| COc1ccc(Cl)cc1-c1c[nH]c2c(NS(C)(=O)=O)cccc12 | 4470 nM | inactive | 233 nM |
| COc1cc(F)ccc1-c1c(CN(C)Cc2ccccc2)[nH]c2c(NS(C)(=O)=O)cc(C(C)C)cc12 | 1580 nM | inactive | 64.2 nM |
| COc1cc(F)ccc1-c1c(CN(C)Cc2ccccc2)[nH]c2c(N)cc(F)cc12 | 2120 nM | inactive | 4190 nM |
| CS(=O)(=O)Nc1cccc2c(-c3ccc(F)cc3)c[nH]c12 | 225 nM | inactive | 29 nM |
| COc1cc(F)ccc1-c1c(CN(C)Cc2ccccc2)[nH]c2c(NS(C)(=O)=O)cc(C(C)(C)C)cc12 | 3880 nM | inactive | 253 nM |
| COc1cc(F)ccc1-c1c(Cc2ccccc2)[nH]c2c(NS(C)(=O)=O)cc(C(C)C)cc12 | 4250 nM | inactive | 4000 nM |
| CS(=O)(=O)Nc1cccc2c(-c3cccc(Cl)c3)c[nH]c12 | 2.1 nM | inactive | 5.51 nM |
| COc1ccccc1-c1c[nH]c2c(NS(C)(=O)=O)cccc12 | – | inactive | 86 nM |
